From patent publication US11390609B2, “Rho-associated protein kinase inhibitor, pharmaceutical composition comprising same, and preparation method and use thereof” (BEIJING TIDE PHARMACEUTICAL CO., LTD., priority 2017, dated 2022)
pIC50: −log10 of the molar value.

Molecular target: ROCK1 (Homo sapiens (Human), UniProt Q13464)
Experiment: ROCK1 kinase IC50 assay (biological test method similar to the ROCK2 assay)
Format: biochemical
Procedure: The kinase IC50 was determined by a commercialized CISBIO kinase detection kit, HTRF KinEASE-STK S2 kit (62ST2PEC). ROCK2 (01-119) employed in the reaction was purchased from Carna Biosciences.
Before the assay, the following working solutions as needed were formulated with corresponding reagents according to the instruction of the kinase detection kit: 1×kinase buffer, 5×STK-52 substrate working solution (1.5 μM) and 5×ATP working solution (1.5 μM), 5×ROCK2 kinase working solution, 4×Streptavidin-XL665 working solution, and 4×STK-Ab-Cryptate 2 detection solution. Then the assay was performed according to the following procedure.
A solution of a compound at a concentration of 10000 nM was prepared with the 1×kinase buffer containing 2.5% DMSO. Gradient dilution of the solution of the compound was performed with the kinase buffer containing DMSO, so as to obtain solutions of a test compound at 9 different concentrations. In addition to wells of test compounds, a positive well (containing all the reagents except the compound) and a negative well (containing all the reagents except the test compound and kinase) were set. Except for the control wells (positive and negative wells), a solution of a test compound (4 μL) was added to each of the reaction wells, and a solution of 2.5% DMSO was added to the control wells. Then the substrate ([…], 2 μL. 5×STK-S2 substrate working solution) was added to each of the reaction wells. The 5×ROCK2 kinase working solution (2 μL, containing 1.4 ng ROCK2 kinase) was added to each of the reaction wells except for the negative well, the volume of which was made up with the 1×kinase buffer (2 μL). The 5×ATP working solution (2 μL) was added to each of the reaction wells, and the mixtures were incubated at room temperature for 2 hours. After the kinase reaction was complete, the 4×Streptavidin-XL665 working solution was added to each of the reaction wells, the solutions were mixed, followed by immediate addition of the 4×STK-Ab-Cryptate 2 detection solution (5 μL), and the mixtures were incubated at room temperature for 1 hour. The fluorescence signal was read on ENVISION (Perkinelmer) (excitation wavelength: 320 nm, and emission wavelength: 665 nm and 615 nm). The inhibitory rate in each well was calculated based on the fluorescence intensity value: ER (Emission Ratio)=(fluorescence intensity at 665 nm/fluorescence intensity at 615 nm); inhibitory rate=(ERpositive−ERtest compound)/(ERpositive−ERnegative)*100%. Curves were plotted and fitted to obtain the median inhibitory concentration (IC50) of each teat compound with the PRISM 5.0 software.
According to a biological test method similar to the above, the IC50 values of the compounds on ROCK1 were tested.

Chain of ROCK1 (Q13464 whole entry, species assumed): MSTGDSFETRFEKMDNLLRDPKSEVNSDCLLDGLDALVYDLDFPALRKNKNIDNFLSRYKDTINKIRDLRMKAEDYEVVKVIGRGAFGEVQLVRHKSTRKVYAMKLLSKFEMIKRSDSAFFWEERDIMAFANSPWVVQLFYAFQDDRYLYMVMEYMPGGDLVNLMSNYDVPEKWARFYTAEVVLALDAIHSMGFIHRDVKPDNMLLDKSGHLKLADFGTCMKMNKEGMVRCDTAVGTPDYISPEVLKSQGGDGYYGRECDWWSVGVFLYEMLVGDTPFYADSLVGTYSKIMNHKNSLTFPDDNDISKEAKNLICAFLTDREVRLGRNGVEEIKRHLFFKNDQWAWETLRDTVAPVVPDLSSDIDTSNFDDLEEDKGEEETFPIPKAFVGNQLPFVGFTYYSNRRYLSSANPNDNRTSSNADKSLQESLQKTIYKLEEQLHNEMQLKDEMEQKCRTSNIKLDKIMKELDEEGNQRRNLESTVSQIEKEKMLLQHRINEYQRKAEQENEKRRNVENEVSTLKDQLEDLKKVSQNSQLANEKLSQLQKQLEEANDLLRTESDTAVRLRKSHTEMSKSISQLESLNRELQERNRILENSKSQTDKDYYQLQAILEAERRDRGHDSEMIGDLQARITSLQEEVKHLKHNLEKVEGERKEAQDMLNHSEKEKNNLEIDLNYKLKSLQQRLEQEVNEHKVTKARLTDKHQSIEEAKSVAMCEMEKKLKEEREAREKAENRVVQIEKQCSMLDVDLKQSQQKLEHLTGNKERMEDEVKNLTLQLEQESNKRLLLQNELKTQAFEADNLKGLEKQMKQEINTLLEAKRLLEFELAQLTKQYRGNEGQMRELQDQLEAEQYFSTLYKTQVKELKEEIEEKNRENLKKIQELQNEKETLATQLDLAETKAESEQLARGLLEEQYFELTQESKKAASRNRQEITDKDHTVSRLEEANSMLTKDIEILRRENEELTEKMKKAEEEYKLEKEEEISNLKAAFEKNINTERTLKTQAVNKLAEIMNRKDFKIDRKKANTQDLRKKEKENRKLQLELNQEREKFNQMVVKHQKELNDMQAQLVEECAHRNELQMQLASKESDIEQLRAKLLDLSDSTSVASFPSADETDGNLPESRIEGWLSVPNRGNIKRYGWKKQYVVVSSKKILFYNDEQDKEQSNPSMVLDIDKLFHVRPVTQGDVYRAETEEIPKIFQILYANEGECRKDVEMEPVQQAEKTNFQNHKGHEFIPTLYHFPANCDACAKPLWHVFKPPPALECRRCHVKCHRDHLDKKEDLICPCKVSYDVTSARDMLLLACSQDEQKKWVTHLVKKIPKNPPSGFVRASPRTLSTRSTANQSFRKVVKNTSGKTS

A pIC50 of 5.69 was found for `CC(C)NC(=O)C1COc2ccc(-c3nccc(Nc4ccc5[nH]ncc5c4)n3)cc2O1` (stereo not shown) [TDI01103, 7-(4-((1H-indazol-5-yl)amino)pyrimidin-2-yl)-N-isopropyl-2,3-dihydrobenzo[b][1,4]dioxine-2-carboxamide] in this work.

A pIC50 of 6.06 was found for `CC(C)NC(=O)c1cc2ccc(-c3nccc(Nc4ccc5[nH]ncc5c4)n3)cc2s1` [TDI01104, 6-(4-((1H-indazol-5-yl)amino)pyrimidin-2-yl)-N-isopropylben-zo[b]thiophene-2-carboxamide] in this work.

A pIC50 of less than 5.00 was found for `CNC(=O)c1cc2ccc(-c3nccc(Nc4ccc5[nH]ncc5c4)n3)cc2s1` [TDI01109, 6-(4-((1H-indazol-5-yl)amino)pyrimidin-2-yl)-N-methylben-zo[b]thiophene-2-carboxamide] in this work.

A pIC50 of less than 5.00 was found for `CN(C)C(=O)c1cc2ccc(-c3nccc(Nc4ccc5[nH]ncc5c4)n3)cc2s1` [TDI01110, 6-(4-((1H-indazol-5-yl)amino)pyrimidin-2-yl)-N, N-dimethylben-zo[b]thiophene-2-carboxamide] in this work.

A pIC50 of 5.85 was found for `O=C(NC1CC1)c1cc2ccc(-c3nccc(Nc4ccc5[nH]ncc5c4)n3)cc2s1` [TDI01111, 6-(4-((1H-indazol-5-yl)amino)pyrimidin-2-yl)-N-cyclopropylben-zo[b]thiophene-2-carboxamide] in this work.

A pIC50 of 6.26 was found for `O=C(NC1CCOC1)c1cc2ccc(-c3nccc(Nc4ccc5[nH]ncc5c4)n3)cc2s1` (stereo not shown) [TDI01113, 6-(4-((1H-indazol-5-yl)amino)pyrimidin-2-yl)-N-(tetrahydrofuran-3-yl)benzo[b]thiophene-2-carboxamide] in this work.

A pIC50 of less than 5.00 was found for `O=C(Nc1ccnnc1)c1cc2ccc(-c3nccc(Nc4ccc5[nH]ncc5c4)n3)cc2s1` [TDI01116, 6-(4-((1H-indazol-5-yl)amino)-pyrimidin-2-yl)-N-(pyridazin-4-yl)benzo[b]-thiophene-2-carboxamide] in this work.

A pIC50 of 5.49 was found for `CC(C)NC(=O)c1cc2ccc(-c3nc(Nc4ccc5[nH]ncc5c4)c4ccn(CCN(C)C)c4n3)cc2s1` [TDI01122, 6-(4-((1H-indazol-5-yl)amino)-7-(2-(dimethylami-no)ethyl)-7H-pyrrolo[2,3-d]pyrimidin-2-yl)-N-isopropylben-zo[b]thiophene-2-carboxamide] in this work.

A pIC50 of 5.86 was found for `Cn1cc(NC(=O)c2cc3ccc(-c4nccc(Nc5ccc6[nH]ncc6c5)n4)cc3[nH]2)cn1` [TDI01134, 6-(4-((1H-indazol-5-yl)amino)-pyrimidin-2-yl)-N-(1-methyl-1H-pyrazol-4-yl)-1H-indole-2-carboxamide] in this work.

A pIC50 of 5.52 was found for `CC(C)NC(=O)c1cc2ccc(-c3nc(Nc4ccc5[nH]ncc5c4)c4occc4n3)cc2s1` [TDI01135, 6-(4-((1H-indazol-5-yl)amino)furo[3,2-d]pyrimidin-2-yl)-N-isopropylben-zo[b]thiophene-2-carboxamide] in this work.

A pIC50 of 6.08 was found for `CC(C)NC(=O)c1cc2ccc(-c3nc(Nc4ccc5[nH]ncc5c4)c4sccc4n3)cc2s1` [TDI01136, 6-(4-((1H-indazol-5-yl)amino)thieno[3,2-d]pyrimidin-2-yl)-N-isopropylben-zo[b]thiophene-2-carboxamide] in this work.

A pIC50 of 6.08 was found for `CC(C)NC(=O)c1cc2ccc(-c3nc(Nc4ccc5[nH]ncc5c4)c4sccc4n3)cc2[nH]1` [TDI01141, 6-(4-((1H-indazol-5-yl)amino)thieno[3,2-d]pyrimidin-2-yl)-N-isopropyl-1H-indole-2-carboxamide] in this work.

A pIC50 of 5.83 was found for `CC(C)NC(=O)c1cc2ccc(-c3nc(Nc4ccc5[nH]ncc5c4)c4cc[nH]c4n3)cc2[nH]1` [TDI01143, 6-(4-((1H-indazol-5-yl)amino)-7H-pyrrolo[2,3-d]pyrimidin-2-yl)-N-isopropyl-1H-indole-2-carboxamide] in this work.

A pIC50 of 5.88 was found for `CC(C)NC(=O)c1cc2ccc(-c3nc(Nc4ccc5[nH]ncc5c4)c4scnc4n3)cc2[nH]1` [TDI01149, 6-(7-((1H-indazol-5-yl)ami-no)thiazolo[4,5-d]pyrimidin-5-yl)-N-isopropyl-1H-indole-2-carboxamide] in this work.

A pIC50 of 6.05 was found for `O=C(NC1CC1)c1cc2ccc(-c3nccc(Nc4ccc5[nH]ncc5c4)n3)cc2[nH]1` [TDI01151, 6-(4-((1H-indazol-5-yl)amino)-pyrimidin-2-yl)-N-cyclopropyl-1H-indole-2-carboxamide] in this work.

A pIC50 of less than 5.00 was found for `O=C(Nc1ccnnc1)c1cc2ccc(-c3nccc(Nc4ccc5[nH]ncc5c4)n3)cc2[nH]1` [TDI01152, 6-(4-((1H-indazol-5-yl)amino)-pyrimidin-2-yl)-N-(pyridazin-4-yl)-1H-indole-2-carboxaniide] in this work.

A pIC50 of 5.57 was found for `O=C(Nc1ccncc1)c1cc2ccc(-c3nccc(Nc4ccc5[nH]ncc5c4)n3)cc2[nH]1` [TDI01153, 6-(4-((1H-indazol-5-yl)amino)-pyrimidin-2-yl)-N-(pyridin-4-yl)-1H-indole-2-carboxamide] in this work.

A pIC50 of 5.70 was found for `O=C(Nc1cnoc1)c1cc2ccc(-c3nccc(Nc4ccc5[nH]ncc5c4)n3)cc2[nH]1` [TDI01156, 6-(4-((1H-indazol-5-yl)amino)-pyrimidin-2-yl)-N-(isoxazol-4-yl)-1H-indole-2-carboxamide] in this work.

A pIC50 of 5.65 was found for `O=C(Nc1cnccn1)c1cc2ccc(-c3nccc(Nc4ccc5[nH]ncc5c4)n3)cc2[nH]1` [TDI01160, 6-(4-((1H-indazol-5-yl)amino)pyrimidin-2-yl)-N-(pyrazin-2-yl)-1H-indole-2-carboxamide] in this work.

A pIC50 of less than 5.00 was found for `O=C(Nc1ccncn1)c1cc2ccc(-c3nccc(Nc4ccc5[nH]ncc5c4)n3)cc2[nH]1` [TDI01161, 6-(4-((1H-indazol-5-yl)amino)-pyrimidin-2-yl)-N-(pyrimidin-4-yl)-1H-indole-2-carboxamide] in this work.

A pIC50 of less than 5.00 was found for `O=C(Nc1ccnnc1)c1cc2ccc(-c3nc(Nc4ccc5[nH]ncc5c4)cc4nccn34)cc2[nH]1` [TDI01164, 6-(7-((1H-indazol-5-yl)amino)-imidazo[1,2-c]pyrimidin-5-yl)-N-(pyridazin-4-yl)-1H-indole-2-carboxamide] in this work.

A pIC50 of less than 5.00 was found for `O=C(Nc1ccnnc1)c1cc2ccc(-c3ncnc(Nc4ccc5[nH]ncc5c4)n3)cc2[nH]1` [TDI01167, 6-(4-((1H-indazol-5-yl)amino)-1,3,5-triazin-2-yl)-N-(pyridazin-4-yl)-1H-indole-2-carboxamide] in this work.

A pIC50 of 5.28 was found for `O=C(Nc1ccnnc1)c1cc2ccc(-c3nc(Nc4ccc5[nH]ncc5c4)c4sccc4n3)cc2[nH]1` [TDI01175, 6-(4-((1H-indazol-5-yl)amino)-thieno[3,2-d]pyrimidin-2-yl)-N-(pyridazin-4-yl)-1H-indole-2-carboxamide] in this work.

A pIC50 of 6.28 was found for `CC(CO)NC(=O)c1cc2ccc(-c3nccc(Nc4ccc5[nH]ncc5c4)n3)cc2[nH]1` (stereo not shown) [TDI01176, 6-(4-((1H-indazol-5-yl)amino)-pyrimidin-2-yl)-N-(1-hydroxypropan-2-yl)-1H-indole-2-carboxamide] in this work.

A pIC50 of 5.56 was found for `O=C(Nc1ccnnc1Cl)c1cc2ccc(-c3nccc(Nc4ccc5[nH]ncc5c4)n3)cc2[nH]1` [TDI01180] in this work.

A pIC50 of 6.02 was found for `O=C(Nc1cnncc1Cl)c1cc2ccc(-c3nccc(Nc4ccc5[nH]ncc5c4)n3)cc2[nH]1` [TDI01181, 6-(4-((1H-indazol-5-yl)amino)-pyrimidin-2-yl)-N-(5-chloropridazin-4-yl)-1H-indole-2-carboxamide] in this work.

A pIC50 of 6.15 was found for `O=C(Nc1ccc2[nH]ncc2c1)c1cc2ccc(-c3nccc(Nc4ccc5[nH]ncc5c4)n3)cc2[nH]1` [TDI01182, 6-(4-((1H-indazol-5-yl)amino)-pyrimidin-2-yl)-N-(1H-indazol-5-yl)-1H-indole-2-carboxamide] in this work.

A pIC50 of 5.89 was found for `O=C(Nc1ccnnc1)c1cc2cc(-c3nccc(Nc4ccc5[nH]ncc5c4)n3)ccc2[nH]1` [TDI01188, 5-(4-((1H-indazol-5-yl)amino)-pyrimidin-2-yl)-N-(pyridazin-4-yl)-1H-indole-2-carboxamide] in this work.

A pIC50 of 5.60 was found for `O=C(Nc1ccnnc1)c1c[nH]c2ccc(-c3nccc(Nc4ccc5[nH]ncc5c4)n3)cc12` [TDI01191, 5-(4-((1H-indazol-5-yl)amino)-pyrimidin-2-yl)-N-(pyridazin-4-yl)-1H-indole-3-carboxamide] in this work.

A pIC50 of 5.96 was found for `O=C(Nc1cn[nH]c1)c1cc2ccc(-c3nccc(Nc4ccc5[nH]ncc5c4)n3)cc2[nH]1` [TDI01199, 6-(4-((1H-indazol-5-yl)amino)-pyrimidin-2-yl)-N-(1H-pyrazol-4-yl)-1H-indole-2-carboxamide] in this work.

A pIC50 of 6.25 was found for `CC(C)(C)OC(=O)n1cc(NC(=O)c2cc3ccc(-c4nccc(Nc5ccc6[nH]ncc6c5)n4)cc3[nH]2)cn1` [TDI01200, tert-butyl 4-(6-(4-((1H-indazol-5-yl)amino)-pyrimidin-2-yl)-1H-indole-2-carboxamido)-1H-pyrazole-1-carboxylate] in this work.
